Test results reported in article PMC11062899, “De novo development of small cyclic peptides that are orally bioavailable” (Nature Chemical Biology, 2023).
Values joined by “and” are separate entries in the source; they are usually repeats but may differ in a detail not shown here. Equal values may be shown once. Read-outs that look alike come from different tables or passages of the source.

What was measured:
[1] = Peptide stability in simulated intestinal fluid (SIF); format: in vitro ADME, porcine; settings: pig, simulated gi fluid; 8 h, 37 °C, pH 6.8; read-out: Proteolytic stability: SIF (8 h) % remaining
How it was run: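 Peptide from a 1 mM DMSO stock was added to fluid pre-warmed at 37 °C. SGF was pH 1.2 NaCl with porcine pepsin (0.32 g per 100 ml), and SIF was pH 6.8 potassium phosphate with porcine pancreatin (1 g per 100 ml). Supernatant peptide was quantified by LC–MS, with residual expressed as T1/T0.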

rat α-thrombin = biological target: T1, rat α-thrombin (Rattus norvegicus, UniProt P18292); experiment: Protease inhibition, Ki for rat α-thrombin (fluorogenic substrate Z-Gly-Gly-Arg-AMC); format: biochemical; settings: for slope normalized to DMSO, rat alpha thrombin inhibition: replicates R1-R3
T1 construct: rat α-thrombin (Molecular Innovations) were used at final concentrations of 2 nM and 3 nM; purchased Molecular Innovations
How it was run: (§1)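 Ki values come from Cheng–Prusoff correction of IC50, itself fitted by four-parameter logistic regression of activity versus a no-peptide control. Assays used 2 nM human or 3 nM rat thrombin, 50 μM Z-Gly-Gly-Arg-AMC, 30 min kinetic fluorescence at 25 °C.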

human α-thrombin = human α-thrombin (Homo sapiens, UniProt P00734); experiment: Protease inhibition, Ki for human α-thrombin (fluorogenic substrate Z-Gly-Gly-Arg-AMC); format: biochemical; settings: for slope normalized to DMSO, human alpha thrombin inhibition: replicates R1-R3
How it was run: as §1

[2] = Passive artificial membrane permeability (PAMPA);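 on Permeability% Average: top well sample relative to theoretical equilibrium sample by TIC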
Description: The plate system consisted of a 96-well microwell plate (donor wells) and a 96-well insert containing a PVDF membrane coated with tri-layers of phospholipids (acceptor wells). Permeability was measured from the bottom plate (donor wells) to the top insert (acceptor wells). Cyclic peptide or reference compound solutions were prepared at a concentration of 50 μM in PBS buffer (pH 7.4) containing 5% DMSO, and 300 μl of the resulting solutions was placed into the donor wells of the PAMPA plate. Acceptor wells were prepared by adding 200 μl of PBS buffer (pH 7.4) containing 5% DMSO. The insert was stacked onto the donor plate, and the system was covered with a lid to avoid evaporation. […] Additionally, 3:2 dilutions of the 50 μM cyclic peptide stocks were prepared in PBS buffer (pH 7.4) containing 5% DMSO to yield a sample corresponding to the theoretical equilibrium between donor and acceptor wells. The samples were run on the LC–MS to measure the cyclic peptide concentration representing maximum permeability. Permeability percent was calculated using equation (4) below.4 Permeability%=PeptideAcceptor/PeptideEquilibrated×100 where [PeptideAcceptor] represents the AUC measured on the LC–MS for the acceptor wells, and [PeptideEquilibrated] represents the AUC measured for the samples diluted to the theoretical equilibrium. Detection limit for the assay was typically at 1% permeability.
Papp values were calculated using equation (5).5 Papp=VD×VA/VD+VA×A×t×−ln1−PeptideAcceptor/PeptideEquilibrated where VD and VA are the volumes of donor and acceptor wells, respectively; A is the area of the membrane; and t is the incubation time.

[3] = Metabolic stability in rat liver microsomes (RLMs); settings: for TIC value of compound, metabolic stability RLM: replicates R1-R3; for microsomal CLint / half-life: rat, microsomes

## O=C1C[C@H]2CCCN2C(=O)[C@H](Cc2ccccc2)NC(=O)[C@@H](NC(=O)c2ccc(Cl)cc2)CCC=CCCCCN1 (mixture of isomers) [peptide 46]
[1]
  remaining at 8 h: 93 ± 12%
Rat α-thrombin; individual replicates R1-R3, read-out: IC50, rat alpha thrombin inhibition
  IC50: 18.6 nM and 18.8 nM and 18.2 nM
Rat α-thrombin; individual replicates R1-R3, read-out: Ki, rat alpha thrombin inhibition
  Ki: 10.3 nM and 10.4 nM and 10.1 nM
Rat α-thrombin; peptide 1.00E+02 uM
  slope normalized to DMSO, rat alpha thrombin inhibition: 8.3 and 7.3 and 7.2
Rat α-thrombin; peptide 1.19E-05 uM
  slope normalized to DMSO, rat alpha thrombin inhibition: 99.4 and 100.3 and 100.6
Rat α-thrombin; peptide 1.22E-02 uM
  slope normalized to DMSO, rat alpha thrombin inhibition: 60.3 and 60.4 and 59.6
Rat α-thrombin; peptide 1.25E+01 uM
  slope normalized to DMSO, rat alpha thrombin inhibition: 5.7 and 8.0 and 8.3
Rat α-thrombin; peptide 1.53E-03 uM
  slope normalized to DMSO, rat alpha thrombin inhibition: 88.8 and 87.9 and 87.4
Rat α-thrombin; peptide 1.56E+00 uM
  slope normalized to DMSO, rat alpha thrombin inhibition: 10.8 and 10.2 and 9.8
Rat α-thrombin; peptide 1.91E-04 uM
  slope normalized to DMSO, rat alpha thrombin inhibition: 94.6 and 95.0 and 96.1
Rat α-thrombin; peptide 1.95E-01 uM
  slope normalized to DMSO, rat alpha thrombin inhibition: 21.1 and 20.0 and 19.8
Rat α-thrombin; peptide 2.38E-05 uM
  slope normalized to DMSO, rat alpha thrombin inhibition: 96.3 and 97.7 and 98.1
Rat α-thrombin; peptide 2.44E-02 uM
  slope normalized to DMSO, rat alpha thrombin inhibition: 48.7 and 49.3 and 48.8
Rat α-thrombin; peptide 2.50E+01 uM
  slope normalized to DMSO, rat alpha thrombin inhibition: 12.0 and 7.7 and 6.9
Rat α-thrombin; peptide 3.05E-03 uM
  slope normalized to DMSO, rat alpha thrombin inhibition: 80.9 and 81.1 and 81.9
Rat α-thrombin; peptide 3.12E+00 uM
  slope normalized to DMSO, rat alpha thrombin inhibition: 9.6 and 9.4 and 8.9
Rat α-thrombin; peptide 3.81E-04 uM
  slope normalized to DMSO, rat alpha thrombin inhibition: 92.9 and 94.7 and 94.0
Rat α-thrombin; peptide 3.91E-01 uM
  slope normalized to DMSO, rat alpha thrombin inhibition: 15.0 and 14.0 and 13.6
Rat α-thrombin; peptide 4.77E-05 uM
  slope normalized to DMSO, rat alpha thrombin inhibition: 95.4 and 96.4 and 96.6
Rat α-thrombin; peptide 4.88E-02 uM
  slope normalized to DMSO, rat alpha thrombin inhibition: 33.7 and 33.6 and 33.1
Rat α-thrombin; peptide 5.00E+01 uM
  slope normalized to DMSO, rat alpha thrombin inhibition: 7.6 and 7.2 and 7.4
Rat α-thrombin; peptide 6.10E-03 uM
  slope normalized to DMSO, rat alpha thrombin inhibition: 72.8 and 73.4 and 73.0
Rat α-thrombin; peptide 6.25E+00 uM
  slope normalized to DMSO, rat alpha thrombin inhibition: 10.1 and 8.5 and 8.3
Rat α-thrombin; peptide 7.63E-04 uM
  slope normalized to DMSO, rat alpha thrombin inhibition: 91.2 and 92.2 and 91.3
Rat α-thrombin; peptide 7.81E-01 uM
  slope normalized to DMSO, rat alpha thrombin inhibition: 13.0 and 11.7 and 11.5
Rat α-thrombin; peptide 9.54E-05 uM
  slope normalized to DMSO, rat alpha thrombin inhibition: 95.8 and 95.1 and 95.6
Rat α-thrombin; peptide 9.77E-02 uM
  slope normalized to DMSO, rat alpha thrombin inhibition: 26.6 and 25.4 and 25.1
Human α-thrombin; average of R1-R3, read-out: Ki Average, human alpha thrombin inhibition
  Ki: 65.1 nM
Human α-thrombin; individual replicates R1-R3, read-out: IC50, human alpha thrombin inhibition
  IC50: 94.1 nM and 79.8 nM and 79.7 nM
Human α-thrombin; individual replicates R1-R3, read-out: Ki, human alpha thrombin inhibition
  Ki: 72.5 nM (2×) and 61.5 nM (2×) and 61.4 nM (2×)
Human α-thrombin; peptide 1.00E+02 uM
  slope normalized to DMSO, human alpha thrombin inhibition: 10.4 and 9.8 and 9.9
Human α-thrombin; peptide 1.19E-05 uM
  slope normalized to DMSO, human alpha thrombin inhibition: 103.8 and 104.1 and 105.5
Human α-thrombin; peptide 1.22E-02 uM
  slope normalized to DMSO, human alpha thrombin inhibition: 87.6 and 86.9 (2×)
Human α-thrombin; peptide 1.25E+01 uM
  slope normalized to DMSO, human alpha thrombin inhibition: 5.3 and 12.2 and 12.4
Human α-thrombin; peptide 1.53E-03 uM
  slope normalized to DMSO, human alpha thrombin inhibition: 101.5 and 101.1 and 102.6
Human α-thrombin; peptide 1.56E+00 uM
  slope normalized to DMSO, human alpha thrombin inhibition: 20.2 and 17.9 and 18.1
Human α-thrombin; peptide 1.91E-04 uM
  slope normalized to DMSO, human alpha thrombin inhibition: 103.2 and 104.0 and 103.7
Human α-thrombin; peptide 1.95E-01 uM
  slope normalized to DMSO, human alpha thrombin inhibition: 45.4 and 43.2 and 43.8
Human α-thrombin; peptide 2.38E-05 uM
  slope normalized to DMSO, human alpha thrombin inhibition: 104.8 and 104.2 and 105.6
Human α-thrombin; peptide 2.44E-02 uM
  slope normalized to DMSO, human alpha thrombin inhibition: 80.1 and 79.6 and 79.3
Human α-thrombin; peptide 2.50E+01 uM
  slope normalized to DMSO, human alpha thrombin inhibition: 11.9 and 11.0 and 10.5
Human α-thrombin; peptide 3.05E-03 uM
  slope normalized to DMSO, human alpha thrombin inhibition: 97.6 and 98.1 and 98.6
Human α-thrombin; peptide 3.12E+00 uM
  slope normalized to DMSO, human alpha thrombin inhibition: 16.0 and 13.3 and 14.6
Human α-thrombin; peptide 3.81E-04 uM
  slope normalized to DMSO, human alpha thrombin inhibition: 102.7 and 102.9 and 102.6
Human α-thrombin; peptide 3.91E-01 uM
  slope normalized to DMSO, human alpha thrombin inhibition: 32.0 and 29.5 and 28.9
Human α-thrombin; peptide 4.77E-05 uM
  slope normalized to DMSO, human alpha thrombin inhibition: 102.3 and 105.2 and 103.4
Human α-thrombin; peptide 4.88E-02 uM
  slope normalized to DMSO, human alpha thrombin inhibition: 66.2 and 64.4 and 64.1
Human α-thrombin; peptide 5.00E+01 uM
  slope normalized to DMSO, human alpha thrombin inhibition: 11.3 and 10.4 and 8.0
Human α-thrombin; peptide 6.10E-03 uM
  slope normalized to DMSO, human alpha thrombin inhibition: 94.3 and 94.6 and 94.4
Human α-thrombin; peptide 6.25E+00 uM
  slope normalized to DMSO, human alpha thrombin inhibition: 14.8 and 13.5 (2×)
Human α-thrombin; peptide 7.63E-04 uM
  slope normalized to DMSO, human alpha thrombin inhibition: 99.9 and 102.3 and 103.3
Human α-thrombin; peptide 7.81E-01 uM
  slope normalized to DMSO, human alpha thrombin inhibition: 26.0 and 24.0 (2×)
Human α-thrombin; peptide 9.54E-05 uM
  slope normalized to DMSO, human alpha thrombin inhibition: 102.8 and 104.6 and 103.3
Human α-thrombin; peptide 9.77E-02 uM
  slope normalized to DMSO, human alpha thrombin inhibition: 53.1 and 52.5
[2]; 50 μM, 12–18 h, acceptor concentration relative to equilibrium
  PAMPA permeability: % permeability: 55 ± 8%
[2]; 50 μM, 12 h (Fig. 6d)
  Permeability% (single replicates R1–R3): 49.41% and 50.43% and 63.83%
  Permeability% Average: 54.6%
[2]; PAMPA, pH 7.4
  Papp at 50 μM: 7.76 ×10⁻⁶ cm/s
[3]; 0 min
  TIC value of compound, metabolic stability RLM: 14110188 (2×) and 12352514
[3]; 5 min
  TIC value of compound, metabolic stability RLM: 13677902 and 11194388 and 11188088
[3]; 15 min
  TIC value of compound, metabolic stability RLM: 10674204 and 7516980 and 9028625
[3]; 30 min
  TIC value of compound, metabolic stability RLM: 7710068 and 5736371 and 6256299
[3]; 60 min
  TIC value of compound, metabolic stability RLM: 3465219 and 2801334 and 3774480
[3]; individual replicates R1-R3
  CL, RLM: 41.9492 ul/min/mg protein and 42.0127 ul/min/mg protein
  Half Life, RLM: 33.04 min and 32.99 min
[3]; CL, RLM, individual replicates R1-R3
  microsomal CLint: 41.5 µL/min/mg
[3]; Half Life, RLM, individual replicates R1-R3
  half-life: 33.4 min
[3]; Metabolic stability: RLM CL (ul/min/mg), RLMs, mean and SD, three measurements
  microsomal CLint: 43 ± 1 µL/min/mg
[3]; pH 7.4, Metabolic stability: Half life T1/2 (min), RLMs, mean and SD, three measurements
  half-life: 33 ± 1 min
